Consider one compound from patent publication US20230174571A1, “METHOD OF TREATING SHIP1-MEDIATED DISEASES USING PELOROL DERIVATIVES” (Zebrapeutics Inc., priority 2020, published 2023).

Each structure is given as a SMILES string.

One test has as its target T1, PAC2 WT (Mus musculus, UniProt Q9ES52).
T1 construct: PAC1 and PAC2 consists of phosphatase and C2 domain (residues aa 402-861 and aa 402-857 respectively); made in house; host or cells: E. coli BL21 co-transformed with pBirAcm
T1 sequence (Q9ES52 402-857): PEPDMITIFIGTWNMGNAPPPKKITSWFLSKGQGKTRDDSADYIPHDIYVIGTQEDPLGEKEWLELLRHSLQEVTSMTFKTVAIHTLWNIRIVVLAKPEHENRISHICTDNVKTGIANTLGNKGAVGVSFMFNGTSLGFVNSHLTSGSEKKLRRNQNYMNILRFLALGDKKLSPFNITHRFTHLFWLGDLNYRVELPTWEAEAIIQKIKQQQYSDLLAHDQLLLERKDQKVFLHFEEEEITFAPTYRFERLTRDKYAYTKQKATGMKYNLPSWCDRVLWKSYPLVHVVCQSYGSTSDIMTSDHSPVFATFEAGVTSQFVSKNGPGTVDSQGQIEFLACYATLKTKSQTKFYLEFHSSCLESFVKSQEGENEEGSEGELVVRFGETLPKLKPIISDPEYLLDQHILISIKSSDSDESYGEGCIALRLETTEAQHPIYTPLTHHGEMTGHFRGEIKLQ
Nature of the test: Biolayer interferometry, wild-type PAC2. It counts as binding. The following applies: 20 μM analyte; compared to compound I-2 or PI(3,4)P2. The method, then:
Expression of PAC2-Avi tag for Biolayer interferometry. A sequence corresponding to Avi-tag ([…]) was added to the c-terminal end of the PAC2 in LIC-HMT-PAC2 expressing vector via standard restriction digestion and ligation. The LIC-HMT-PAC2-Avi expressing vector was then co-transformed into E. coli BL21 cells with pBirAcm expression vector in 1:1 molar ratio. Overnight culture was inoculated with a 250-fold dilution to start the actual culture. The cells were grown at 37° C. in LB medium (supplemented with 50 μg/mL of kanamycin and 10 μg/mL of chloramphenicol) with shaking speed of 225 rpm. When OD600 reached about 0.6, 5 mM of biotin in bicine buffer pH 8.3 was added to the culture to have final concentration of 125 μM of biotin. The culture was then cooled down to room temperature before the addition of 0.4 mM isopropyl-B-D-1-thiogalactopyranoside (IPTG) to induce the expression of the recombinant protein with Avi-tag. The rest of the method is identical as written in “Expression of PAC2 for crystallography”.
Biolayer interferometry. […] The association was measured for 600 s at an analyte concentration of 20 μM followed by dissociation for 300 s in the same buffer as the baseline. The raw data was analyzed using the Octet Red Data Analysis software (ver. 8.2). […]
Background: BLI is a label-free optical method that tracks binding on a fibre tip over time.

Test [1] concerns the target T2, SHIP1 (Homo sapiens, UniProt Q92835).
T2 sequence (Q92835 1-1189): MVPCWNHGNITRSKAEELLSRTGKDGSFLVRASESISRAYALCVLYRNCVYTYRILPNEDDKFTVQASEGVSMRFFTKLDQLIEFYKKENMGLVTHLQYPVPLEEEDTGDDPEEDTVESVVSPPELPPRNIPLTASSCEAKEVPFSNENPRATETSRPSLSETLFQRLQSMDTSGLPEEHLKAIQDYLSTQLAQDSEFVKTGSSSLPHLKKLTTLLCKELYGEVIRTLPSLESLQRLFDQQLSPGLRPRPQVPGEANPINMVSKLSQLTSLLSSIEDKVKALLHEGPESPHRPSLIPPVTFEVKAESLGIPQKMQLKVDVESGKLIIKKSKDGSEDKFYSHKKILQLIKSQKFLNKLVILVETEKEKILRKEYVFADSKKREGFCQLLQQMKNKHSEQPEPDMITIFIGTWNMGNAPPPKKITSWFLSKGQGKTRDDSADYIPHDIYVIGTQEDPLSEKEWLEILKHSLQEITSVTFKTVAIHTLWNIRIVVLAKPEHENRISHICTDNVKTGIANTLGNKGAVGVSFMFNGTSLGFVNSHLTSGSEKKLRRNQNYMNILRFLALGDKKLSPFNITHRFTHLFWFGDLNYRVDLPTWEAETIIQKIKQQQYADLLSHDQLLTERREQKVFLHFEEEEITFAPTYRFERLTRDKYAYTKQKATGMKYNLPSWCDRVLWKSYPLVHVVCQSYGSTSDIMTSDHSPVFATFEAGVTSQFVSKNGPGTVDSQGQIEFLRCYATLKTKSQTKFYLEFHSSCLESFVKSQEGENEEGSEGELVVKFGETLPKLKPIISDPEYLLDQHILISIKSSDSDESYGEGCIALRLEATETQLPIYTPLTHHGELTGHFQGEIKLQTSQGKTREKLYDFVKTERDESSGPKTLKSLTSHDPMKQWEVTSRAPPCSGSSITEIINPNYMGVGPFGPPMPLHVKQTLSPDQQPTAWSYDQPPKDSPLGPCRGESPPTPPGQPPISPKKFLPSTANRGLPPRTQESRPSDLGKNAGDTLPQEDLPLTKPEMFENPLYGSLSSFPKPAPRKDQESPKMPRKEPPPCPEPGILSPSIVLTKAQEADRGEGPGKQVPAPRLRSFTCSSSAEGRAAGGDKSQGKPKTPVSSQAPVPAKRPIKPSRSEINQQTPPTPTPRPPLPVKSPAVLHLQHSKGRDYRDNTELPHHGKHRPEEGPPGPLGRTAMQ
The following applies: Stenton et al., 2013b; cited from earlier work.

For test [2], the target named is T2, SHIP1. The following applies: scintillation proximity assay, Stenton et al; cited from earlier work. On the technique in general: Scintillation proximity formats need no separation of bound from free tracer.

With `C=C1CC[C@H]2[C@H](CN)[C@@H]([C@@]3(C)CC[C@H](O)C[C@@H]3CO)CC[C@]12C` [AQX-1125/Rosiptor], at PAC2 WT, the “binding to SHIP1 (PAC2 WT) in BLI assay” value is listed as “binds very poorly”. Further, the “SHIP1 phosphatase enhancing activity” value at SHIP1 [1] is “marginal”. For the same compound, the “signal of tritiated compound binding to SHIP1 protein” value on SHIP1 [2] is recorded as ~300 cpm.
